What was measured:
Type in all cases: in vivo
[1] = system: winter wheat (Triticum aestivum); assay: Test D pre-/postemergence plant response
From the text: (§1) Seeds of plant species selected from blackgrass (Alopecurus myosuroides), Italian ryegrass (Lolium multiflorum), winter wheat (Triticum aestivum), galium (catchweed bedstraw, Galium aparine), corn (Zea mays), large (Lg) crabgrass (Digitaria sanguinalis), giant foxtail (Setaria faberii), johnsongrass (Sorghum halepense), lambsquarters (Chenopodium album), morningglory (Ipomoea coccinea), yellow nutsedge (Cyperus esculentus), pigweed (Amaranthus retroflexus), ragweed (common ragweed, Ambrosia elatior), soybean (Glycine max), bamyardgrass (Echinochloa crus-galli), oilseed rape (Brassica napus), waterhemp (common waterhemp, Amaranthus rudis), and velvetleaf (Abutilon theophrasti) were planted into a blend of loam soil and sand and treated preemergence with test chemicals formulated in a non-phytotoxic solvent mixture which included a surfactant. At the same time, plants selected from these crop and weed species and also kochia (Kochia scoparia), wild oat (Avena fatua), and chickweed (common chickweed, Stellaria media) were planted in pots containing Redi-Earth® planting medium (Scotts Company, 14111 Scottslawn Road, Marysville, Ohio 43041) comprising spaghnum peat moss, vermiculite, wetting agent and starter nutrients and treated with postemergence applications of test chemicals formulated in the same manner. Plants ranged in height from 2 to 18 cm (1- to 4-leaf stage) for postemergence treatments. Treated plants and controls were maintained in a greenhouse for 13 to 15 days, after which time all species were compared to controls and visually evaluated. Plant response ratings, summarized in Table D, are based on a scale of 0 to 100 where 0 is no effect and 100 is complete control. A dash (-) response means no test result.

[2] = system: morningglory (Ipomoea coccinea); assay: Test D pre-/postemergence plant response
From the text: as §1

corn (Zea mays) [3] = assay: Test D pre-/postemergence plant response
From the text: as §1

[4] = system: ragweed (common ragweed, Ambrosia elatior); assay: Test D pre-/postemergence plant response
From the text: as §1

[5] = system: waterhemp (common waterhemp, Amaranthus rudis); assay: Test D pre-/postemergence plant response
From the text: as §1

[6] = system: galium (catchweed bedstraw, Galium aparine); assay: Test D pre-/postemergence plant response
From the text: as §1

soybean (Glycine max) = assay: Test D pre-/postemergence plant response
From the text: as §1

[7] = system: large (Lg) crabgrass (Digitaria sanguinalis); assay: Test D pre-/postemergence plant response
From the text: as §1

[8] = system: lambsquarters (Chenopodium album); assay: Test D pre-/postemergence plant response
From the text: as §1

[9] = system: Italian ryegrass (Lolium multiflorum); assay: Test D pre-/postemergence plant response
From the text: as §1

[10] = system: yellow nutsedge (Cyperus esculentus); assay: Test D pre-/postemergence plant response
From the text: as §1

corn (Zea mays) [11] = assay: Test B pre-/postemergence plant response; conditions: Postemergence, 1000 g ai/ha; 0 to 100 scale (0 no effect, 100 complete control)
Procedure, shortened: (§2)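 Greenhouse pots, loam/sand soil; compound formulated with surfactant in non-phytotoxic solvent. Preemergence soil spray and postemergence spray at 1–2 leaf stage run simultaneously. Visual injury, 0–100, about 10 days post-treatment.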

[12] = system: wheat (Triticum aestivum); assay: Test B pre-/postemergence plant response; conditions: Postemergence, 1000 g ai/ha; 0 to 100 scale (0 no effect, 100 complete control)
Procedure, shortened: as §2

[13] = system: barnyardgrass (Echinochloa crus-galli); assay: Test B pre-/postemergence plant response; conditions: 1000 g ai/ha, 0 to 100 scale (0 no effect, 100 complete control)
Procedure, shortened: as §2

[14] = system: giant foxtail (Setaria faberii); assay: Test B pre-/postemergence plant response; conditions: 1000 g ai/ha, 0 to 100 scale (0 no effect, 100 complete control)
Procedure, shortened: as §2

[15] = system: pigweed (Amaranthus retroflexus); assay: Test B pre-/postemergence plant response; conditions: 1000 g ai/ha, 0 to 100 scale (0 no effect, 100 complete control)
Procedure, shortened: as §2

[16] = Postemergence, 16 g ai/ha, scale 0 to 100 (0 no effect, 100 complete control)
[17] = Postemergence, 31 g ai/ha, scale 0 to 100 (0 no effect, 100 complete control)
[18] = Postemergence, 62 g ai/ha, scale 0 to 100, 0 no effect, 100 complete control
[19] = Postemergence, 125 g ai/ha, scale 0 to 100, 0 no effect, 100 complete control
[20] = Preemergence, 16 g ai/ha, scale 0 to 100 (0 no effect, 100 complete control)
[21] = Preemergence, 31 g ai/ha, scale 0 to 100 (0 no effect, 100 complete control)
[22] = Preemergence, 62 g ai/ha, scale 0 to 100 (0 no effect, 100 complete control)

FCc1cc(-c2c(F)cccc2Oc2ncc(Cl)cn2)no1 [Compound 57]
100: Plant response rating (scale 0 to 100), Ragweed ([4]; Preemergence, 125 g ai/ha) | Plant response rating, Ragweed [4, 22] | Plant response rating (scale 0 to 100), Waterhemp ([5]; Preemergence, 125 g ai/ha) | Plant response rating, Waterhemp [5, 20] | Plant response rating, Waterhemp [5, 22] | Plant response rating (scale 0 to 100), Crabgrass, Large ([7]; Preemergence, 125 g ai/ha) | Plant response rating, Crabgrass, Large [7, 22] | Plant response rating (scale 0 to 100), Lambsquarters ([8]; Preemergence, 125 g ai/ha) | Plant response rating, Lambsquarters [8, 21] | Plant response rating, Lambsquarters [8, 22] | Plant response rating, Barnyardgrass ([13]; Postemergence) | Plant response rating, Barnyardgrass ([13]; Preemergence) | Plant response rating, Foxtail, Giant ([14]; Postemergence) | Plant response rating, Foxtail, Giant ([14]; Preemergence) | Plant response rating, Pigweed ([15]; Postemergence)
65: Plant response rating, Morningglory [2, 19] | Plant response rating, Galium [6, 18] | Plant response rating, Soybean (soybean (Glycine max); [21])
15: Plant response rating, Wheat [1, 18]
0: Wheat plant response rating [1, 16] | Plant response rating, Wheat [1, 20] | Plant response rating, Wheat [1, 21] | Plant response rating, Wheat [1, 22] | Corn plant response rating (corn (Zea mays) [3]; [16]) | Plant response rating, Corn (corn (Zea mays) [3]; [20]) | Plant response rating, Corn (corn (Zea mays) [3]; [21]) | Ryegrass, Italian plant response rating [9, 16] | Ryegrass, Italian plant response rating [9, 17] | Plant response rating, Ryegrass, Italian [9, 18] | Plant response rating, Ryegrass, Italian [9, 19] | Plant response rating, Ryegrass, Italian [9, 20] | Plant response rating, Ryegrass, Italian [9, 21] | Nutsedge, Yellow plant response rating [10, 16] | Plant response rating, Nutsedge, Yellow [10, 20]
90: Plant response rating, Waterhemp [5, 21] | Plant response rating (scale 0 to 100), Galium ([6]; Preemergence, 125 g ai/ha) | Plant response rating, Galium [6, 22] | Plant response rating, Soybean (soybean (Glycine max); [19]) | Plant response rating, Corn (corn (Zea mays) [11]) | Plant response rating, Wheat [12] | Plant response rating, Pigweed ([15]; Preemergence)
80: Plant response rating, Galium [6, 20] | Plant response rating, Lambsquarters [8, 19] | Plant response rating, Lambsquarters [8, 20]
60: Plant response rating, Ragweed [4, 18] | Waterhemp plant response rating [5, 16] | Lambsquarters plant response rating [8, 16]
95: Plant response rating, Galium [6, 19] | Plant response rating (scale 0 to 100), Soybean (soybean (Glycine max); Preemergence, 125 g ai/ha) | Plant response rating, Soybean (soybean (Glycine max); [22])
5: Wheat plant response rating [1, 17] | Plant response rating (scale 0 to 100), Wheat ([1]; Preemergence, 125 g ai/ha) | Morningglory plant response rating [2, 16] | Corn plant response rating (corn (Zea mays) [3]; [17]) | Plant response rating, Corn (corn (Zea mays) [3]; [18]) | Plant response rating, Corn (corn (Zea mays) [3]; [22]) | Crabgrass, Large plant response rating [7, 16] | Crabgrass, Large plant response rating [7, 17] | Plant response rating, Ryegrass, Italian [9, 22] | Nutsedge, Yellow plant response rating [10, 17] | Plant response rating, Nutsedge, Yellow [10, 18] | Plant response rating, Nutsedge, Yellow [10, 19]
85: Plant response rating, Soybean (soybean (Glycine max); [18]) | Plant response rating, Crabgrass, Large [7, 21]
55: Waterhemp plant response rating [5, 17]
30: Plant response rating (scale 0 to 100), Corn (corn (Zea mays) [3]; Preemergence, 125 g ai/ha)
10: Plant response rating, Morningglory [2, 20] | Plant response rating, Corn (corn (Zea mays) [3]; [19]) | Plant response rating, Crabgrass, Large [7, 18] | Plant response rating, Crabgrass, Large [7, 19] | Plant response rating, Nutsedge, Yellow [10, 21]
98: Plant response rating, Ragweed [4, 19] | Plant response rating, Waterhemp [5, 19]
25: Plant response rating, Ragweed [4, 20]
35: Plant response rating, Morningglory [2, 22] | Plant response rating, Ragweed [4, 21]
50: Ragweed plant response rating [4, 17] | Galium plant response rating [6, 17] | Plant response rating (scale 0 to 100), Ryegrass, Italian ([9]; Preemergence, 125 g ai/ha)
45: Morningglory plant response rating [2, 17] | Plant response rating, Morningglory [2, 18] | Plant response rating (scale 0 to 100), Morningglory ([2]; Preemergence, 125 g ai/ha)
75: Plant response rating, Waterhemp [5, 18] | Plant response rating, Crabgrass, Large [7, 20]
40: Galium plant response rating [6, 16] | Soybean plant response rating (soybean (Glycine max); [16]) | Lambsquarters plant response rating [8, 17]
70: Plant response rating, Galium [6, 21] | Soybean plant response rating (soybean (Glycine max); [17]) | Plant response rating, Lambsquarters [8, 18]
20: Plant response rating, Wheat [1, 19] | Plant response rating, Morningglory [2, 21] | Ragweed plant response rating [4, 16] | Plant response rating (scale 0 to 100), Nutsedge, Yellow ([10]; Preemergence, 125 g ai/ha) | Plant response rating, Nutsedge, Yellow [10, 22]

From patent US10131652B2, “Pyrimidinyloxy benzene derivatives as herbicides” (E. I. DU PONT DE NEMOURS AND COMPANY, priority 2014, dated 2018)
